Measurements as given in patent US11186579B2 (Gilead Sciences, Inc., priority 2018, dated 2021).

Molecular target: T1, IDO1 (Homo sapiens, UniProt P14902)
T1 construct: HeLa cells were treated with a test compound in the presence of IFNγ, which induces IDO1 expression; endogenous in cells; host or cells: H1-HeLa cells (ATCC #CRL-1958), IDO1 induced with IFNγ
Experiment: Cell-Based (HeLa) Assay for Measurement of IDO1 Inhibition
Conditions: H1-HeLa cells, IDO1 induced with IFNγ, 48 hour incubation, kynurenine in supernatant (absorbance 480 nm); geometric mean of minimum four determinations
Procedure: To measure IDO1 inhibition in tissue culture, HeLa cells were treated with a test compound in the presence of IFNγ, which induces IDO1 expression. Following incubation, cell supernatants were assayed for kynurenine levels, an indicator of IDO1 activity.
The following day, the test compounds were added in DMSO (0.5% final) at various concentrations, and IDO1 was inducibly expressed by the addition of 50 uL/well of 50 ng/mL of INFγ (Peprotech #300-02) in cell plating media. As a positive control, 50 uL of the cell plating media without IFNγ was added to several wells. Following a 48 hour incubation, the plates were spun down at 1,200 RPM for 5 min at 10° C. 65 μL/well of the supernatant was then transferred to new 384-well plates (Thermo #262160) that contained 10 uL/well of 30% TCA (Sigma #TO699), and the plates were sealed and incubated at 60° C. for 30 min. The plates were then centrifuged for 15 min at 2,000 RPM at 10° C. 40 μL/well of the supernatant was transferred to new 384-well plates (Thermo #262160) and was reacted with 40 μL/well of 2% (w/v) p-dimethlyaminobenzaldehyde (Sigma #156417) in glacial acetic acid (Sigma #A6283). The reaction was incubated at room temperature for 10 min and absorbance at 480 nm was read using a PerkinElmer Envision plate reader.
Data in Table 1 were normalized based on positive (-IFNγ) and negative (+IFNγ) controls and EC50 values were calculated from the fit of the dose-response curves to a four-parameter equation. All EC50 values represent geometric mean values of a minimum of four determinations.

T1 sequence (P14902 whole entry): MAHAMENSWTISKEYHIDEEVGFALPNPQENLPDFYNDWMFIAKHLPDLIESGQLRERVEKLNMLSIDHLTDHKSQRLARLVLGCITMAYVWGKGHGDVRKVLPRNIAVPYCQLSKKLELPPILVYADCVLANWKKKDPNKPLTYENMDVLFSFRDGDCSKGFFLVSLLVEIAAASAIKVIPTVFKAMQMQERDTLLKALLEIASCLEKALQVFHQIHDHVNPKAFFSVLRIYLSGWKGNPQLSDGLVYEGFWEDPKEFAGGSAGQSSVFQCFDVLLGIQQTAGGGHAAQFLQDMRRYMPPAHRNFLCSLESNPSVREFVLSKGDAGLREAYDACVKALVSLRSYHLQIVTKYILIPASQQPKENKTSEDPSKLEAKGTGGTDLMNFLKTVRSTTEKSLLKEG

| SMILES | EC50 |
| --- | --- |
| COCCOCc1nc2c(-c3ccc(C(F)(F)F)c(C(=O)Nc4ccc(F)cc4)c3)cccn2c1-c1cccc(F)c1F [Example 1, 5-(3-(2,3-difluorophenyl)-2-((2-methoxyethoxy)methyl)imidazo[1,2-a]pyridin-8-yl)-N-(4-fluorophenyl)-2-(trifluoromethyl)benz amide] | 8680 nM |
| NCc1nc2c(-c3ccc(C(F)(F)F)c(C(=O)Nc4ccc(F)cc4)c3)cccn2c1-c1cccc(F)c1F [Example 7, 5-(2-(aminomethyl)-3-(2,3-difluorophenyl)imidazo[1,2-a]pyridin-8-yl)-N-(4-fluorophenyl)-2-(trifluoromethyl)benzamide] | 1010 nM |
| Fc1ccc2[nH]c(-c3cc(-c4cccn5c(-c6cccc(F)c6F)cnc45)ccc3C(F)(F)F)nc2c1 [Example 36, 2-(5-(3-(2,3-difluorophenyl)imidazo[1,2-a]pyridin-8-yl)-2-(trifluoromethyl)phenyl)-5-fluoro-1H-benzo[d]imidazole] | 713 nM |
| O=C(Nc1ccc(F)cc1)c1cc(-c2cccn3c(-c4cccc(F)c4F)cnc23)ncc1C(F)(F)F [Example 3, 2-(3-(2,3-difluorophenyl)imidazo[1,2-a]pyridin-8-yl)-N-(4-fluorophenyl)-5-(trifluoromethyl)isonicotinamide] | 2390 nM |
| Cc1cnc(-c2cccn3c(-c4cccc(F)c4F)cnc23)cc1C(=O)Nc1ccc(F)cc1 [Example 8, 2-(3-(2,3-difluorophenyl)imidazo[1,2-a]pyridin-8-yl)-N-(4-fluorophenyl)-5-methylisonicotinamide] | 945 nM |
| O=C(Nc1ccc(F)cc1)c1cc(-c2cccn3c(-c4cccc(F)c4F)c(CO)nc23)ccc1C(F)(F)F [Example 28, 5-(3-(2,3-difluorophenyl)-2-(hydroxymethyl)imidazo[1,2-a]pyridin-8-yl)-N-(4-fluorophenyl)-2-(trifluoromethyl)benzamide] | 40 nM |
| Cc1ncc(-c2cccn3c(-c4cccc(F)c4F)cnc23)cc1C(=O)Nc1ccc(F)cc1 [Example 12, 5-(3-(2,3-difluorophenyl)imidazo[1,2-a]pyridin-8-yl)-N-(4-fluorophenyl)-2-methylnicotinamide] | 403 nM |
| Cc1ncccc1-c1cnc2c(-c3ccc(C(F)(F)F)c(C(=O)Nc4ccc(F)cc4)c3)cccn12 [Example 9, N-(4-fluorophenyl)-5-(3-(2-methylpyridin-3-yl)imidazo[1,2-a]pyridin-8-yl)-2-(trifluoromethyl)benzamide] | 535 nM |
| Cc1ccc(-c2cnc3c(-c4ccc(C(F)(F)F)c(C(=O)Nc5ccc(F)cc5)c4)cccn23)cn1 [Example 4, N-(4-fluorophenyl)-5-(3-(6-methylpyridin-3-yl)imidazo[1,2-a]pyridin-8-yl)-2-(trifluoromethyl)benzamide] | 2230 nM |
| Cc1ncc(-c2ccnn3c(-c4cccc(F)c4F)cnc23)cc1C(=O)Nc1ccc(F)cc1 [Example 13] | 395 nM |
| O=C(Nc1ccc(F)cc1)c1cc(-c2cccn3c(-c4ccncc4)cnc23)ccc1C(F)(F)F [Example 6, N-(4-fluorophenyl)-5-(3-(pyridin-4-yl)imidazo[1,2-a]pyridin-8-yl)-2-(trifluoromethyl)benzamide] | 1420 nM |
| Cc1ncc(-c2cccn3c(-c4cncc(F)c4)c(CO)nc23)cc1C(=O)Nc1ccc(F)cc1 [Example 2, N-(4-fluorophenyl)-5-(3-(5-fluoropyridin-3-yl)-2-(hydroxymethyl)imidazo[1,2-a]pyridin-8-yl)-2-methylnicotinamide] | 3610 nM |
| Cc1cccc(-c2cnc3c(-c4ccc(C(F)(F)F)c(C(=O)Nc5ccc(F)cc5)c4)cccn23)n1 [Example 5] | 1700 nM |
| Cc1ccc(-c2cccn3c(-c4cccc(F)c4F)c(C)nc23)cc1C(=O)Nc1ccc(F)cc1 [Example 11, 5-(3-(2,3-difluorophenyl)-2-methylimidazo[1,2-a]pyridin-8-yl)-N-(4-fluorophenyl)-2-methylbenzamide] | 436 nM |

More lines, in order of falling EC50, values ahead:

| EC50 | SMILES |
| --- | --- |
| 372 nM | Cc1ncc(-c2cccn3c(-c4cccc(F)c4F)c(CO)nc23)cc1C(=O)Nc1ccc(F)cc1 [Example 14, 5-(3-(2,3-difluorophenyl)-2-(hydroxymethyl)imidazo[1,2-a]pyridin-8-yl)-N-(4-fluorophenyl)-2-methylnicotinamide] |
| 272 nM | O=C(Nc1ccc(F)cc1)c1cc(-c2cccn3c(-c4cccnc4)c(CO)nc23)ccc1Cl [Example 15, 2-chloro-N-(4-fluorophenyl)-5-(2-(hydroxymethyl)-3-(pyridin-3-yl)imidazo[1,2-a]pyridin-8-yl)benzamide] |
| 168 nM | Cc1ccc(-c2cccn3c(-c4cccc(F)c4F)cnc23)nc1C(=O)Nc1ccc(F)cc1 [Example 16, 6-(3-(2,3-difluorophenyl)imidazo[1,2-a]pyridin-8-yl)-N-(4-fluorophenyl)-3-methylpicolinamide] |
| 168 nM | Cc1ccc(-c2cccn3c(-c4ccccc4)cnc23)cc1C(=O)Nc1ccc(F)cc1 [Example 17, N-(4-fluorophenyl)-2-methyl-5-(3-phenylimidazo[1,2-a]pyridin-8-yl)benzamide] |
| 165 nM | Cc1nc2c(-c3ccc(C(F)(F)F)c(C(=O)Nc4ccc(F)cc4)c3)cccn2c1-c1cccnc1 [Example 18, N-(4-fluorophenyl)-5-(2-methyl-3-(pyridin-3-yl)imidazo[1,2-a]pyridin-8-yl)-2-(trifluoromethyl)benzamide] |
| 146 nM | Cc1ccc(-c2cccn3c(-c4cccc(F)c4)cnc23)cc1C(=O)Nc1ccc(F)cc1 [Example 19, N-(4-fluorophenyl)-5-(3-(3-fluorophenyl)imidazo[1,2-a]pyridin-8-yl)-2-methylbenzamide] |
| 89 nM | O=C(Nc1ccc(F)cc1)c1cc(-c2cccn3c(-c4cccc(F)c4F)cnc23)cnc1C(F)(F)F [Example 20, 5-(3-(2,3-difluorophenyl)imidazo[1,2-a]pyridin-8-yl)-N-(4-fluorophenyl)-2-(trifluoromethyl)nicotinamide] |
| 89 nM | O=C(Nc1ccc(F)cc1)c1cc(-c2cccn3c(-c4cccnc4)c(CO)nc23)ccc1C(F)(F)F [Example 21, N-(4-fluorophenyl)-5-(2-(hydroxymethyl)-3-(pyridin-3-yl)imidazo[1,2-a]pyridin-8-yl)-2-(trifluoromethyl)benzamide] |
| 74 nM | O=C(Nc1ccc(F)cc1)c1cc(-c2cccn3c(-c4cccnc4F)cnc23)ccc1C(F)(F)F [Example 22, N-(4-fluorophenyl)-5-(3-(2-fluoropyridin-3-yl)imidazo[1,2-a]pyridin-8-yl)-2-(trifluoromethyl)benzamide] |
| 73 nM | Cc1ccc(-c2cccn3c(-c4ccccc4F)cnc23)cc1C(=O)Nc1ccc(F)cc1 [Example 23, N-(4-fluorophenyl)-5-(3-(2-fluorophenyl)imidazo[1,2-a]pyridin-8-yl)-2-methylbenzamide] |
| 64 nM | O=C(Nc1ccc(F)cc1)c1nc(-c2cccn3c(-c4cccc(F)c4F)cnc23)ccc1C(F)(F)F [Example 24, 6-(3-(2,3-difluorophenyl)imidazo[1,2-a]pyridin-8-yl)-N-(4-fluorophenyl)-3-(trifluoromethyl)picolinamide] |
